Laboratory results as given in patent publication US10028961B2, “Therapeutically active compounds and their methods of use” (AGIOS PHARMACEUTICALS, INC., priority 2013, dated 2018).

What was measured:
[1] = molecular target: IDH1 wt/IDH1 R132H heterodimer (Homo sapiens (Human), UniProt O75874, R132H); test: In vitro assay for IDH1m R132H inhibitors, IDH1 wt/IDH1 R132H heterodimer, NADPH depletion (diaphorase/resazurin); type: biochemical; conditions: IDH1 wt/R132H heterodimer, NADPH/NADP, not saturated; read-out: IDH1 wt/R132H NADPH/NADP IC50 not saturated
In short: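 Read-out is NADPH left after α-KG reduction to 2-HG, measured via resorufin fluorescence after 5 min diaphorase/resazurin step at 25° C. Enzyme is sf9-expressed IDH1wt-his/IDH1R132H-flag heterodimer, pre-incubated 1 hr at room temperature with compound and cofactor. IC50s from DMSO stocks diluted 1:50.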

IDH2 R140Q = IDH2 R140Q (Homo sapiens (Human), UniProt P48735, R140Q); test: In vitro assay for IDH2m R140Q inhibitors, cofactor depletion assay; type: biochemical; conditions: IDH2 R140Q enzyme
In short: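 Remaining cofactor measured fluorimetrically: diaphorase/resazurin Stop Mix […], halting the reaction. Before that, mutant enzyme and compound sat 1 h at RT, then substrate mix (4 μM NADPH, 1.6 mM α-KG) was added for 16 h at RT.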

[2] = system: U87MG pLVX-IDH2 R140Q-neo cells; test: U87MG pLVX-IDH2 R140Q-neo cell based assay, 2-HG by LC-MS; conditions: Homo sapiens, U-87 MG
[3] = system: Neurosphere cells (TS603); test: Cellular assay for IDH1m R132H inhibitors, 2-HG by LC-MS in neurosphere cells (TS603); type: cell-based; conditions: 2-HG in media at 48 hours
In short: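 TS603 neurosphere cells in NeuroCult medium were dosed with compound (0.25% DMSO final) at 37 C, 5% CO2. After 48 hours, medium 2-HG was measured by LC-MS. At 72 hours, viability was read by CellTiter-Glo luminescence.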

IDH1 wt/IDH1 R132H heterodimer, sequence (O75874 whole entry R132H): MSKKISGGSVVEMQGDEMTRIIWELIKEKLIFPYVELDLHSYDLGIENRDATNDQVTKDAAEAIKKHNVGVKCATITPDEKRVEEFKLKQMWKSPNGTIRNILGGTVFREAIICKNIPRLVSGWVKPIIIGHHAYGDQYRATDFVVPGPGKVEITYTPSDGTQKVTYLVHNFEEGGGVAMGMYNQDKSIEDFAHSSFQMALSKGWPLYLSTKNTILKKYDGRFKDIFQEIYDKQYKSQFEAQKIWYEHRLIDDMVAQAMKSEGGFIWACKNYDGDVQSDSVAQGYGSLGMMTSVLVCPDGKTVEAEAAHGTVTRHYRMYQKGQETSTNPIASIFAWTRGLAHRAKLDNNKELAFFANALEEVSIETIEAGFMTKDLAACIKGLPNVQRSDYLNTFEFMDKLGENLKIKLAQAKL
IDH1 wt/IDH1 R132H heterodimer, sequence (O75874 whole entry, stated change not applied): as the sequence (O75874 whole entry R132H) above, with H132R counted along it
IDH2 R140Q, sequence (P48735 40-452 R140Q): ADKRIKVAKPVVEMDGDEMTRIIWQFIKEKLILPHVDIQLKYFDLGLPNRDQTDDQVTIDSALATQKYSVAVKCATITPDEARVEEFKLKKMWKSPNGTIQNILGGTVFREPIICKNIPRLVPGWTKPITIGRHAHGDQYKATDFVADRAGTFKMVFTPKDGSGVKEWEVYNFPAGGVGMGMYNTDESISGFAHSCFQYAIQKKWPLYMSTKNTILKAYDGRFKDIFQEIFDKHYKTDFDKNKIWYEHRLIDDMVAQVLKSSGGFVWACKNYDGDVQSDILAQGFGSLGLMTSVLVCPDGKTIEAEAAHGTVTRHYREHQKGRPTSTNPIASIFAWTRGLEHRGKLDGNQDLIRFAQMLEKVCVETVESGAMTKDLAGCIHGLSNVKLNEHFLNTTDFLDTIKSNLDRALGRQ

Compound | IC50 [1] | IC50 (IDH2 R140Q) | IC50 [2] | IC50 [3]
CC(F)(F)c1cccc(-c2nc(NC3CCC(F)(F)C3)nc(NC3CCC(F)(F)C3)n2)n1 (centres unmarked) [Compound 105] | < 50 nM | < 50 nM | < 50 nM | < 50 nM
Fc1cc(F)cc(Nc2nc(NC3CC(F)(F)C3)nc(-n3ccc(C(F)(F)F)n3)n2)c1 [Compound 106] | < 50 nM | < 50 nM | < 50 nM | < 50 nM
CCC(Nc1nc(NC(CC)C2CC2)nc(-c2cccc(Cl)n2)n1)C1CC1 (centres unmarked) [Compound 110] | < 50 nM | < 50 nM | < 50 nM | < 50 nM
FC1(F)CCC(Nc2nc(NC3CCC(F)(F)C3)nc(-c3cccc(Cl)n3)n2)C1 (centres unmarked) [Compound 113] | < 50 nM | < 50 nM | < 50 nM | < 50 nM
Fc1cc(F)cc(Nc2nc(NC3CCC(F)(F)C3)nc(-c3cccc(C(F)(F)F)n3)n2)c1 (centres unmarked) [Compound 123] | < 50 nM | < 50 nM | < 50 nM | < 50 nM
N#Cc1cc(F)cc(Nc2nc(NC3CCC(F)(F)C3)nc(-c3cccc(C(F)(F)F)n3)n2)c1 (centres unmarked) [Compound 124] | < 50 nM | < 50 nM | < 50 nM | < 50 nM
FC1(F)CC(Nc2nc(NC3CC(F)(F)C3)nc(-n3ccc(C(F)(F)F)n3)n2)C1 [Compound 126] | < 50 nM | < 50 nM | < 50 nM | < 50 nM
N#CC1(c2cc(Nc3nc(NC4CCC(F)(F)C4)nc(-c4cccc(Cl)n4)n3)ccn2)CC1 (centres unmarked) [Compound 127] | < 50 nM | < 50 nM | < 50 nM | < 50 nM
FC(F)c1cccc(-c2nc(NC3CC(F)(F)C3)nc(NC3CC(F)(F)C3)n2)n1 [Compound 145] | < 50 nM | < 50 nM | < 50 nM | < 50 nM
FC1(F)CC(Nc2nc(NC3CC(F)(F)C3)nc(-c3cccc(C(F)(F)F)n3)n2)C1 [Compound 149] | < 50 nM | < 50 nM | < 50 nM | < 50 nM
N#CC1(c2cc(Nc3nc(NC4CCC(F)(F)C4)nc(-c4cccc(C(F)(F)F)n4)n3)ccn2)CC1 (centres unmarked) [Compound 151] | < 50 nM | < 50 nM | < 50 nM | < 50 nM
FC1(F)CCC(Nc2nc(NC3Cc4ccccc4C3)nc(-c3cccc(C(F)(F)F)n3)n2)C1 (centres unmarked) [Compound 152] | < 50 nM | < 50 nM | < 50 nM | < 50 nM
FC1(F)CCC(Nc2nc(NC3CCC(F)(F)CC3)nc(-c3cncc(C(F)(F)F)n3)n2)CC1 [Compound 160] | < 50 nM | < 50 nM | < 50 nM | < 50 nM
FC1(F)CC(Nc2nc(NC3CC(F)(F)C3)nc(-c3cncc(C(F)(F)F)n3)n2)C1 [Compound 161] | < 50 nM | < 50 nM | < 50 nM | < 50 nM
CC(C)(C)Nc1nc(Nc2ccnc(C#N)c2)nc(-c2cccc(C(F)(F)F)n2)n1 [Compound 162] | < 50 nM | < 50 nM | < 50 nM | < 50 nM
N#CC1(c2cc(Nc3nc(NC4CC(F)(F)C4)nc(-c4cccc(C(F)(F)F)n4)n3)ccn2)CC1 [Compound 168] | < 50 nM | < 50 nM | < 50 nM | < 50 nM
FC1(F)CC(Nc2nc(NC3CC(F)(F)C3)nc(-c3csc(C(F)(F)F)n3)n2)C1 [Compound 170] | < 50 nM | < 50 nM | < 50 nM | < 50 nM
FC1(F)CCC(Nc2nc(NC3CCC(F)(F)CC3)nc(-n3ccc(C(F)(F)F)n3)n2)CC1 [Compound 176] | < 50 nM | < 50 nM | < 50 nM | < 50 nM
FC1(F)CCC(Nc2nc(Nc3ccnc(C(F)(F)F)c3)nc(-c3cccc(C(F)(F)F)n3)n2)C1 (centres unmarked) [Compound 178] | < 50 nM | < 50 nM | < 50 nM | < 50 nM
N#Cc1cc(Nc2nc(NC3CCC(F)(F)C3)nc(-c3cccc(C(F)(F)F)n3)n2)ccn1 (centres unmarked) [Compound 181] | < 50 nM | < 50 nM | < 50 nM | < 50 nM
FC1(F)CCC(Nc2nc(NC3Cc4ccc(Cl)cc4C3)nc(-c3cccc(C(F)(F)F)n3)n2)C1 (centres unmarked) [Compound 182] | < 50 nM | < 50 nM | < 50 nM | < 50 nM
CC(F)(F)c1cccc(-c2nc(NC3CC(F)(F)C3)nc(NC3CC(F)(F)C3)n2)n1 [Compound 187] | < 50 nM | < 50 nM | < 50 nM | < 50 nM
C[C@@H](Nc1nc(NC(C2CC2)C2CC2)nc(-c2cccc(C(F)(F)F)n2)n1)C1CC1 [Compound 193] | < 50 nM | < 50 nM | < 50 nM | < 50 nM
Fc1ccc([C@H]2C[C@@H](Nc3nc(NC4CCC(F)(F)C4)nc(-c4cccc(C(F)(F)F)n4)n3)C2)cc1 (some centres unmarked) [Compound 199] | < 50 nM | < 50 nM | < 50 nM | < 50 nM
CC(Nc1nc(N[C@H](C)C2CC2)nc(-c2cccc(C(F)(F)F)n2)n1)C(F)(F)F (some centres unmarked) [Compound 203] | < 50 nM | < 50 nM | < 50 nM | < 50 nM
CS(=O)(=O)N1CCC(Nc2nc(NC3CCC(F)(F)CC3)nc(-c3cccc(C(F)(F)F)n3)n2)CC1 [Compound 266] | 100 to 1000 nM | – | – | < 50 nM
Fc1ccc([C@H]2C[C@@H](Nc3nc(N[C@H]4C[C@@H](c5ccc(F)cc5)C4)nc(-c4cccc(C(F)(F)F)n4)n3)C2)cc1 [Compound 272] | 100 to 1000 nM | 100 to 1000 nM | 100 to 1000 nM | –
CC(=O)N1CCC(Nc2nc(NC3CCC(F)(F)CC3)nc(-c3cccc(C(F)(F)F)n3)n2)CC1 [Compound 273] | 100 to 1000 nM | – | – | –

Second part, the compound after the results:

IC50 [1] | IC50 (IDH2 R140Q) | IC50 [2] | IC50 [3] | Compound
< 50 nM | < 50 nM | < 50 nM | < 50 nM | FC1(F)CCC(Nc2nc(Nc3ccnc(C(F)(F)F)c3)nc(-c3cccc(Cl)n3)n2)C1 (centres unmarked) [Compound 115]
< 50 nM | < 50 nM | < 50 nM | – | CC(C)(C)Nc1nc(Nc2cccc(C#N)c2)nc(-c2cccc(C(F)(F)F)n2)n1 [Compound 117]
< 50 nM | < 50 nM | < 50 nM | < 50 nM | C[C@@H](Nc1nc(N[C@H](C)C2CC2)nc(-n2ccc(C(F)(F)F)n2)n1)C1CC1 [Compound 121]
< 50 nM | < 50 nM | < 50 nM | < 50 nM | FC1(F)CC(Nc2nc(NC3CC(F)(F)C3)nc(-c3nc(C(F)(F)F)cs3)n2)C1 [Compound 128]
< 50 nM | < 50 nM | < 50 nM | < 50 nM | Clc1cccc(-c2nc(NC(C3CC3)C3CC3)nc(NC(C3CC3)C3CC3)n2)n1 [Compound 131]
< 50 nM | < 50 nM | < 50 nM | < 50 nM | CC(Nc1nc(Nc2ccnc(C3(C#N)CC3)c2)nc(-c2cccc(Cl)n2)n1)C(F)(F)F (centres unmarked) [Compound 134]
< 50 nM | < 50 nM | < 50 nM | < 50 nM | FC1(F)CCC(Nc2nc(NC3CCC(F)(F)C3)nc(-n3ccc(C(F)(F)F)n3)n2)C1 (centres unmarked) [Compound 146]
< 50 nM | < 50 nM | < 50 nM | < 50 nM | FC1(F)CCC(Nc2nc(NC3CCC(F)(F)CC3)nc(-c3cncc(Cl)n3)n2)CC1 [Compound 147]
< 50 nM | < 50 nM | < 50 nM | < 50 nM | N#Cc1cc(F)cc(Nc2nc(NC3CCC(F)(F)CC3)nc(-c3cccc(C(F)(F)F)n3)n2)c1 [Compound 164]
< 50 nM | < 50 nM | < 50 nM | < 50 nM | C[C@@H](Nc1nc(Nc2ccnc(C3(C#N)CC3)c2)nc(-c2cccc(Cl)n2)n1)C1CC1 [Compound 167]
< 50 nM | < 50 nM | < 50 nM | < 50 nM | N#CC1(c2cc(Nc3nc(NC4CCC(F)(F)CC4)nc(-c4cccc(C(F)(F)F)n4)n3)ccn2)CC1 [Compound 189]
< 50 nM | < 50 nM | < 50 nM | < 50 nM | FC1(F)CCC(Nc2nc(NC3CC4(C3)CC(F)(F)C4)nc(-c3cccc(C(F)(F)F)n3)n2)C1 (centres unmarked) [Compound 191]
< 50 nM | < 50 nM | < 50 nM | < 50 nM | FC1(F)CCC(Nc2nc(Nc3ccnc(C(F)(F)F)c3)nc(-c3cccc(C(F)(F)F)n3)n2)CC1 [Compound 192]
< 50 nM | < 50 nM | < 50 nM | < 50 nM | N#Cc1cc(Nc2nc(NC3CC(F)(F)C3)nc(-c3cccc(C(F)(F)F)n3)n2)ccn1 [Compound 213]
100 to 1000 nM | – | – | – | FC1(F)CCC(Nc2nc(NC3CCOCC3)nc(-c3cccc(C(F)(F)F)n3)n2)CC1 [Compound 255]
100 to 1000 nM | – | – | – | O=C(c1ccccc1)N1CCC(Nc2nc(NC3CCC(F)(F)C3)nc(-c3cccc(C(F)(F)F)n3)n2)C1 (centres unmarked) [Compound 263]
100 to 1000 nM | – | – | – | FC1(F)CCC(Nc2nc(NC3CCN(Cc4ccccc4)C3)nc(-c3cccc(C(F)(F)F)n3)n2)C1 (centres unmarked) [Compound 280]
